Measurements: US20130053310A1 (NOVO NORDISK A/S, priority 2010, published 2013)
Entries after “also recorded” stand apart in the source; their conditions may differ.

Experiments:
glucagon receptor = target: T1, glucagon receptor (Homo sapiens, UniProt P47871); assay: Assay (I) Glucagon activity: cAMP biosensor (ACTOne) FLIPR assay in HEK-293 cells with cloned glucagon receptor; format: cell-based
T1 construct: expressed in transfected cells
Experimental: The cells (14000 per well) were incubated (37° C., 5% CO2) overnight in 384-well plates. Next day the cells were loaded with a calcium responsive dye that only distributed into the cytoplasm. Probenecid, an inhibitor of the organic anion transporter, was added to prevent the dye from leaving the cell. A PDE inhibitor was added to prevent formatted cAMP from being degraded. […] End point data were collected after 6 minutes. An increase in intracellular cAMP was proportional to an increased in calcium concentrations in the cytoplasm. When calcium was bound the dry a fluorescence signal was generated. EC50-values were calculated in Prism5.

[1] = Assay (II) ThT fibrillation assay for physical stability; format: physicochemical; conditions: shaking 960 rpm; for Assay (II) (pH 4.0) Lag time (hours): ThT fibrillation assay, pH 4.0, 250 μM, 10 mM glycylglycine, 45 hours at 37° C.
Text: This has traditionally been measured by visual inspection of the sample. However, that kind of measurement is very subjective and depending on the observer. Therefore, the application of a small molecule indicator probe is much more advantageous.
Here, F is the ThT fluorescence at the time t. The constant t0 is the time needed to reach 50% of maximum fluorescence.
Few of those intermediates nucleate to form a template onto which further intermediates may assembly and the fibrillation proceeds. The lag-time corresponds to the interval in which the critical mass of nucleus is built up and the apparent rate constant is the rate with which the fibril itself is formed.
Samples were prepared freshly before each assay. […] The pH of the sample was adjusted to the desired value using appropriate amounts of concentrated NaOH and HCl. Thioflavin T was added to the samples from a stock solution in H2O to a final concentration of 1 μM.
The plate was sealed with Scotch Pad (Qiagen).
Each run was initiated by incubating the plate at the assay temperature for 10 min. The plate was measured every 20 minutes for a desired period of time. Between each measurement, the plate was shaken and heated as described.
The supernatant was filtered through a 0.22 μm filter and an aliquot was transferred to a HPLC vial.
The measurement points were saved in Microsoft Excel format for further processing and curve drawing and fitting was performed using GraphPad Prism.
The data set may be fitted to Eq. (1).

T1 sequence (P47871 26-477): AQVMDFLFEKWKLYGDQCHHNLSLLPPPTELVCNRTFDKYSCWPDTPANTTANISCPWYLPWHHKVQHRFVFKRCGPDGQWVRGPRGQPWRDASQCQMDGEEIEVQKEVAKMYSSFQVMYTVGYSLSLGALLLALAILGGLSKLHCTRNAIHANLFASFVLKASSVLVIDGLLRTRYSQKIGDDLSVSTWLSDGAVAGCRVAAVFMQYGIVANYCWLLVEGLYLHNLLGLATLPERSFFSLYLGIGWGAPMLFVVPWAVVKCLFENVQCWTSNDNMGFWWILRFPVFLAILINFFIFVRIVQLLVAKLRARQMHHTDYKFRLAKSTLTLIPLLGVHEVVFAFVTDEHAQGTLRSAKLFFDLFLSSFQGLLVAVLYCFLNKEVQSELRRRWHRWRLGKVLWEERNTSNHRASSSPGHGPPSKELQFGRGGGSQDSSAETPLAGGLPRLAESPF

Structure (SMILES) | EC50 (glucagon receptor) | Assay (II) (pH 4.0) Lag time (hours) [1] | ThT emission / fibrillation upon physical stress ([1]; 250 μM in 1 μM ThT, 10 mM glycylglycine buffer pH 4.0, 45 hours at 37° C.)
CC(C)C[C@H](NC(=O)[C@H](Cc1ccc(O)cc1)NC(=O)[C@H](CCCCN)NC(=O)[C@H](CO)NC(=O)[C@H](Cc1ccc(O)cc1)NC(=O)[C@H](CC(=O)O)NC(=O)[C@H](CO)NC(=O)[C@@H](NC(=O)[C@H](Cc1ccccc1)NC(=O)[C@@H](NC(=O)CNC(=O)[C@H](CCC(N)=O)NC(=O)[C@H](CO)NC(=O)[C@@H](N)Cc1c[nH]cn1)[C@@H](C)O)[C@@H](C)O)C(=O)N[C@@H](CC(=O)O)C(=O)N[C@@H](CO)C(=O)N[C@@H](CCCNC(=N)N)C(=O)N[C@@H](CCCNC(=N)N)C(=O)N[C@@H](C)C(=O)N[C@@H](CCC(N)=O)C(=O)N[C@@H](CC(=O)O)C(=O)N[C@@H](Cc1ccccc1)C(=O)N[C@H](C(=O)N[C@@H](CCC(N)=O)C(=O)N[C@@H](Cc1c[nH]cn1)C(=O)N[C@@H](CC(C)C)C(=O)N[C@@H](CC(C)C)C(=O)N[C@@H](CC(N)=O)C(=O)N[C@H](C(=O)O)[C@@H](C)O)C(C)C [Example 7, [His^25, Leu^27]-Glucagon] | 0.019 nM | > 45 hours | 
CC(C)C[C@H](NC(=O)[C@H](Cc1ccc(O)cc1)NC(=O)[C@H](CCCCN)NC(=O)[C@H](CO)NC(=O)[C@H](Cc1ccc(O)cc1)NC(=O)[C@H](CC(=O)O)NC(=O)[C@H](CO)NC(=O)[C@@H](NC(=O)[C@H](Cc1ccccc1)NC(=O)[C@@H](NC(=O)CNC(=O)[C@H](CCC(N)=O)NC(=O)[C@H](CO)NC(=O)[C@@H](N)Cc1c[nH]cn1)[C@@H](C)O)[C@@H](C)O)C(=O)N[C@@H](CC(=O)O)C(=O)N[C@@H](CO)C(=O)N[C@@H](CCCNC(=N)N)C(=O)N[C@@H](CCCNC(=N)N)C(=O)N[C@@H](C)C(=O)N[C@@H](CCC(N)=O)C(=O)N[C@@H](CCC(=O)O)C(=O)N[C@@H](Cc1ccccc1)C(=O)N[C@H](C(=O)N[C@@H](CCC(N)=O)C(=O)N[C@@H](CCCNC(=N)N)C(=O)N[C@@H](CC(C)C)C(=O)N[C@@H](CC(C)C)C(=O)N[C@@H](CO)C(=O)N[C@H](C(=O)O)[C@@H](C)O)C(C)C [Example 6, [Glu^21, Arg^25, Leu^27, Ser^28]-Glucagon] | 0.026 nM | > 45 hours | 
CC(C)C[C@H](NC(=O)[C@H](Cc1ccc(O)cc1)NC(=O)[C@H](CCCCN)NC(=O)[C@H](CO)NC(=O)[C@H](Cc1ccc(O)cc1)NC(=O)[C@H](CC(=O)O)NC(=O)[C@H](CO)NC(=O)[C@@H](NC(=O)[C@H](Cc1ccccc1)NC(=O)[C@@H](NC(=O)CNC(=O)[C@H](CCC(N)=O)NC(=O)[C@H](CO)NC(=O)[C@@H](N)Cc1c[nH]cn1)[C@@H](C)O)[C@@H](C)O)C(=O)N[C@@H](CC(=O)O)C(=O)N[C@@H](CO)C(=O)N[C@@H](CCCNC(=N)N)C(=O)N[C@@H](CCCNC(=N)N)C(=O)N[C@@H](C)C(=O)N[C@@H](CCC(N)=O)C(=O)N[C@@H](CCC(=O)O)C(=O)N[C@@H](Cc1ccccc1)C(=O)N[C@H](C(=O)N[C@@H](CCC(N)=O)C(=O)N[C@@H](CCCNC(=N)N)C(=O)N[C@@H](CC(C)C)C(=O)N[C@@H](CC(C)C)C(=O)N[C@@H](CC(N)=O)C(=O)N[C@H](C(=O)O)[C@@H](C)O)C(C)C [Example 1, [Glu^21, Arg^25, Leu^27]Glucagon] | 0.017 nM |  | does not fibrillate; also recorded: no ThT emission occurred
CC(C)C[C@H](NC(=O)[C@H](Cc1ccc(O)cc1)NC(=O)[C@H](CCCCN)NC(=O)[C@H](CO)NC(=O)[C@H](Cc1ccc(O)cc1)NC(=O)[C@H](CC(=O)O)NC(=O)[C@H](CO)NC(=O)[C@@H](NC(=O)[C@H](Cc1ccccc1)NC(=O)[C@@H](NC(=O)CNC(=O)[C@H](CCC(N)=O)NC(=O)[C@H](CO)NC(=O)[C@@H](N)Cc1c[nH]cn1)[C@@H](C)O)[C@@H](C)O)C(=O)N[C@@H](CC(=O)O)C(=O)N[C@@H](CO)C(=O)N[C@@H](CCCNC(=N)N)C(=O)N[C@@H](CCCNC(=N)N)C(=O)N[C@@H](C)C(=O)N[C@@H](CCC(N)=O)C(=O)N[C@@H](CC(=O)O)C(=O)N[C@@H](Cc1ccccc1)C(=O)N[C@H](C(=O)N[C@@H](CCC(N)=O)C(=O)N[C@@H](CCCCN)C(=O)N[C@@H](CC(C)C)C(=O)N[C@@H](CC(C)C)C(=O)N[C@@H](CC(N)=O)C(=O)N[C@H](C(=O)O)[C@@H](C)O)C(C)C [Example 8, [Lys^25, Leu^27]-Glucagon] | 0.1 nM | > 45 hours | 
CC(C)C[C@H](NC(=O)[C@H](Cc1ccc(O)cc1)NC(=O)[C@H](CCCCN)NC(=O)[C@H](CO)NC(=O)[C@H](Cc1ccc(O)cc1)NC(=O)[C@H](CC(=O)O)NC(=O)[C@H](CO)NC(=O)[C@@H](NC(=O)[C@H](Cc1ccccc1)NC(=O)[C@@H](NC(=O)CNC(=O)[C@H](CCC(N)=O)NC(=O)[C@H](CO)NC(=O)[C@@H](N)Cc1c[nH]cn1)[C@@H](C)O)[C@@H](C)O)C(=O)N[C@@H](CC(=O)O)C(=O)N[C@@H](CO)C(=O)N[C@@H](CCCNC(=N)N)C(=O)N[C@@H](CCCNC(=N)N)C(=O)N[C@@H](C)C(=O)N[C@@H](CCC(N)=O)C(=O)N[C@@H](CCC(=O)O)C(=O)N[C@@H](Cc1ccccc1)C(=O)N[C@H](C(=O)N[C@@H](CCC(N)=O)C(=O)N[C@@H](CCCCN)C(=O)N[C@@H](CC(C)C)C(=O)N[C@@H](CC(C)C)C(=O)N[C@@H](CC(N)=O)C(=O)N[C@H](C(=O)O)[C@@H](C)O)C(C)C [Example 9, [Glu^21, Lys^25, Leu^27]-Glucagon] | 0.043 nM | > 45 hours | 
